# Key:
# souris [1] = test: Anticonvulsant activity, pentylenetetrazol; type: in vivo; settings: 100 mg/kg i.p., 15 min after administration
# souris [2] = test: Rotarod test; settings: 100 mg/kg i.p.; témoin 11,3 ± 3,1
# Experimental: (§4) Les mesures ont été faites a 15, 30 et 60 minutes après I'administration par voie intrapéritonéale (i.p.) a des souris.
# souris [3] = test: General pharmacological profile: defecation; settings: 100 mg/kg i.p., 15 min after administration, Tableau 3
# Experimental: as §4
# souris [4] = test: Vertical pole climbing test; type: in vivo; settings: 100 mg/kg i.p., 15 min after administration
# [5] = Acute toxicity, DL50 i.p.; type: in vivo, souris; settings: mouse, in vivo, ip, read-out: DL50 (ip)en toxicité aigue
# Experimental: (§1) La valeur DL50 i.p. pour tous ces derives a été trouvée voisine de 800 mg/kg et la valeur DL 50 i.v. est supérieure a 5 g/kg.
# souris [6] = test: Morphine test (antagonism); type: in vivo; settings: 100 mg/kg i.p., 15 min after administration
# souris [7] = test: Pentobarbital sleeping time; type: in vivo
# Experimental: as §4
# souris [8] = test: General pharmacological profile: hypersensitivity to noise; settings: 100 mg/kg i.p., 15 min after administration, Tableau 3
# Experimental: as §4
# souris [9] = test: Inclined screen test (neurotoxicity); settings: 100 mg/kg i.p., 15 min after administration, Tableau 3
# Experimental: as §4
# souris [10] = test: General pharmacological profile: spontaneous motor activity; type: in vivo
# Description: (§2) Activite motrice spontanée: MODIGH, K., Central and peripheral effects of 5-hydroxytryptophan on motor activity in mice. Psychopharmacologia (Berlin), 23, 48, 1972. Cadence respiratoire: […], S., and VALZELLI, L. Serotonin and cardiovascular system, Chapter 9, in "Serotonin", Elsevier Publ. Co. Amsterdam 1965.
# souris [11] = test: Tremor score in mice pretreated with a MAO inhibitor (Harmaline); type: in vivo; settings: 75 mg/kg S.C., 1 h after Harmaline 25 mg/kg P.O., 5 souris, scored 5 to 75 min
# Experimental: Les conditions expérimentales étaient les suivantes:
# Chez des souris prétraitées par un inhibiteur de la MAO (Harmaline 25 mg/kg/ P.O.), I'injection de 5HTP (1 heure après l'IMAO) entraîne l'apparition de tremblements plus ou moins généralisés, accompagnés ou non d'hyperactivité motrice et qui sont dus a I'accumulation de sérotonine non dégradée au niveau des récepteurs post-synaptiques cérébraux. On peut établir pour chaque souris une cotation chiffrée suivant l'intensité des symptômes observes au cours du temps (cotation toutes les 5 min. entre la 5ème et la 45ème min. après I'injection de 5 HTP puis toutes les 15 min. jusqu'à la 75ème min.).
# On additionne en une score total tous les chiffres obtenus aux différents temps sur des lots de 5 ou 10 souris.
# Les actions du 5 HTP ont été comparées a celles du DF-5HTP.
# souris [12] = test: Anticonvulsant activity, MES; type: in vivo; settings: for Activité anticonvulsivante 1. MES: 100 mg/kg i.p., 15 min after administration, Tableau 3
# Description: Activite anticonvulsivante (MES): % de protection Temps de sommeil au pentobarbital: WYATT, R.J., ZARKONE, V. […], K., DEMENT, W.C., SMYDER, F. and SJOERDSMA, A., Effects of 5-Hydroxytryptophan on the sleep of normal human subjects. Electroencephaly and Clinical Neurophysiology 30, 5051971.
# Rythme cardiaque = test: Cardiovascular activity: heart rate; type: in vivo
# Description: (§3) Le protocole experimental était celui décrit dans "Sugar Derivatives of Indolamines. part V: Cardiovascular Effects and "Anti-stress" Activity of Desoxyfructose Derivative of Serotonin and 5-Metho-xy- tryptamin", L. Mester, M. Mester, K.P. Bhargava, C. Labrid, G. Dureng and M. Cheucle, THROMBOSIS […], 15,245,1979.
# souris [13] = test: Anti-stress activity: swimming endurance; type: in vivo; settings: 100 mg/kg i.p., souris observed up to 540 min; témoins 385 ± 31 min
# Experimental: Au tableau 4, la lettre N designe le nombre d'animaux (souris). Un astérisque indique une activite importante. Deux astérisques indiquent une possibilité d'activité positive. Dans I'essai d'endurance a la nage, on a observe les souris jusqu'à 540 minutes, la durée moyenne de nage pour les souris témoins étant de 385 ± 31 minutes.
# (N) - représente le nombre d'animaux * - activité importante ** - activite positive possible Pour I'endurance a la nage, les souris ont été observées jusqu'à 540 min, la durée moyenne de nage chez les souris témoins était de 385 + 31 min. *** - La leucocytose a été induite par 0,1 ml de lait (sous-cutanée) avant traitement avec le medicament.
# souris [14] = test: Catatonia; settings: 100 mg/kg i.p., 15 min after administration
# souris [15] = test: General pharmacological profile: respiratory rate; type: in vivo; settings: for Cadence respira-toire: souris; for Cadence respiratoire: 100 mg/kg i.p., 15 min after administration, Tableau 3
# Description: as §2
# COHEN, Y. and BLANCHARD, P. Influence de la chelation du calcium sur les effets tensionnels de la sérotonine chez le chien. J. Physiol., 52, 569,1960.
# BRAUNWALD, E. Control of myocardial oxygen consumption: Physiologic and clinical considerations. Am. J. Cardiol., 27 (4), 416,1971.
# Tension sanguine = test: Cardiovascular activity: blood pressure; type: in vivo
# Description: as §3
# [16] = test system: réponse à l'obstruction de la carotide; test: Cardiovascular activity: response to carotid occlusion (CO); type: in vivo
# Description: as §3
# M. Leprae = test: Incorporation of 3H-DOPA by M. leprae in vitro; type: cell-based, Mycobacterium leprae; settings: 6 h
# Description: Le tableau 6 rassemble des résultats d'essai concernant l'activité du DF-5HTP sur l'incorporation de la DOPA dans les Mycobacteries de la lèpre. Le protocole experimental était celui décrit dans JAYARAMAN, P., […], P.R., MESTER, M. and MESTER, L. Inhibition of the incorporation of ^3H-DOPA in Mycobacterium leprae by Desoxyfructo-serotonin. Biochem. Pharm., 29, 2526,1980.
# On a inoculé 5 x 10^6 M. leprae par tube; le milieu était un tampon phosphate à pH 6,8. La quantité de 3H-DOPA était de 1 µ. Ci/tube.
# Protocole: Chaque tube de 0,5 ml est inocule de 5 x 10^6 M. leprae et de 1 µ Ci de ^3H-DOPA. Après 6 heures, I'incorporation de la DOPA radioactive est enregistrée en DPM selon la technique utilisée dans JAYARAMAN, P., […], P.R., MESTER, M. and MESTER, L. Inhibition of the Incorporation of ^3H-DOPA in Mycobacterium leprae by Desoxyfructo-serotonin. Biochem. Pharm., 29,2526,1980.
# [17] = In vivo metabolism of radioactive compounds, hamster plasma; settings: au bout de 4 heures, figure 2
# Description: La mesure de la radioactivite des diverses fractions isolées du sang des hamsters traités permet de caractériser les metabolites, lesquels sont ainsi isolés et identifies par électrophorèse. Les metabolites acides HIAA et IAA sont séparés ensemble.
# On a porté le temps en abscisses (exprimé en heures) et en ordonnées le pourcentage du compose caractérisé dans le plasma.
# [18] = test system: cellules des neuroblastomes; test: Inhibition of serotonin incorporation into neuroblastoma cells in vitro; type: cell-based
# souris [19] = test: Acute toxicity, DL50 i.p.; type: in vivo
# Experimental: as §1
# souris [20] = test: Motor activity (Photactametre); type: in vivo; settings: 100 mg/kg i.p., compared with 5HTP used as control
# [21] = test system: 5-HT (dans tout le cerveau); test: Amount of serotonin (5-HT) in whole brain, spectrophotofluorometric; type: in vivo, souris; settings: 160 mg/kg i.p., 15 min.; Solution Saline 60,0; mean of 4 souris
# Description: Les quantités de sérotonine ont été estimees par une méthode spectrophotofluorométrique, telle que décrite par Solomon et al. Biochem. Pharmacology 14, 831 (1965). Les résultats de ces essais sont rassemblés dans le Tableau 10 ci-après.
# • * Chaque valeur représente la moyenne de quatre animaux d'experience (souris) • ** La concentration de 5-HT est exprimée par gramme de tissu frais (cerveau).
# [22] = 100 mg/kg (ip), 15 min, Tableau 2
# [23] = 100 mg/kg i.p., 15 min after administration, Tableau 3
# [24] = 10 mg par voie cérébroventriculaire
molecule,measurement,setting,value
"N[C@@H](Cc1c[nH]c2ccc(O)cc12)C(=O)O [5-HTP, 5-hydroxytryptophane, reference compound]",Activité anticonvulsivante 2.Pentylènetetrazol,souris [1],0%
same,Performance à l'essai Rotarod Moyenne (Sec),souris [2],"66,2 ± 6,4 (30) Sec"
same,Défécation,souris [3],oui
same,Essai de grimpé sur un baton vertical,souris [4],Sans effet
same,LD50,[5],> 800 mg/kg
same,Essai à la morphine,souris [6],Négatif (pas d'antagonisme)
same,Temps de sommeil au pentobarbital % du témoin (témoin =100),"souris [7]; 50 mg/kg (ip), 15 min",285 % du témoin
same,Temps de sommeil au pentobarbital % du témoin (témoin =100),"souris [7]; 50 mg/kg (ip), 30 min",222 % du témoin
same,Temps de sommeil au pentobarbital % du témoin (témoin =100),"souris [7]; 50 mg/kg (ip), 60 min",136 % du témoin
same,Temps de sommeil au pentobarbital % du témoin (témoin =100),souris [7]; [22],295 % du témoin
same,Temps de sommeil au pentobarbital % du témoin (témoin =100),"souris [7]; 100 mg/kg (ip), 30 min",276 % du témoin
same,Temps de sommeil au pentobarbital % du témoin (témoin =100),"souris [7]; 100 mg/kg (ip), 60 min",279 % du témoin
same,Hypersensibilité au bruit,souris [8],oui
same,Tamis incliné,souris [9],Pas d'effet neurotoxique
same,Activité motrice spontanée,"souris [10]; 50 mg/kg (ip), souris",sans effet
same,Activité motrice spontanée,"souris [10]; 100 mg/kg (ip), souris, Tableau 2",d'abord légère augmentation et ensuite dimi-nution légère
same,Activité motrice spontanée,souris [10]; [23],Légère augmentation
same,Score total (tremblements),souris [11],146
same,Activité anticon-vulsivante MES % protection,"souris [12]; 50 mg/kg (ip), 15 min",20%
same,Activité anticon-vulsivante MES % protection,"souris [12]; 50 mg/kg (ip), 30 min",25%
same,Activité anticon-vulsivante MES % protection,"souris [12]; 50 mg/kg (ip), 60 min",25%
same,Activité anticon-vulsivante MES % protection,souris [12]; [22],50%
same,Activité anticon-vulsivante MES % protection,"souris [12]; 100 mg/kg (ip), 30 min","33,3%"
same,Activité anticonvulsivante 1. MES,souris [12],60%
same,Rythme cardiaque Durée (min),Rythme cardiaque; [24],non mani-fes-tae jus-qu'à 240
same,Rythme cardiaque Mesure à,Rythme cardiaque; [24],5 min
same,Rythme cardiaque Pic,Rythme cardiaque; [24],30 min
same,Rythme cardiaque Durée,Rythme cardiaque; 100 mg par voie intraveineuse,60 min
same,Rythme cardiaque Mesure à,Rythme cardiaque; 100 mg par voie intraveineuse,1 min
same,Rythme cardiaque Pic,Rythme cardiaque; 100 mg par voie intraveineuse,30 min
same,Endurance à la nage % d'augmentation,souris [13],40^** %
same,Catatonie,souris [14],non
same,Cadence respira-toire,souris [15]; 50 mg/kg (ip),sans effet
same,Cadence respira-toire,"souris [15]; 100 mg/kg (ip), Tableau 2",augmentation
same,Cadence respiratoire,souris [15],Légère augmentation
same,Tension sanguine Durée,Tension sanguine; [24],240 min
same,Tension sanguine Mesure à,Tension sanguine; [24],1 min
same,Tension sanguine Pic,Tension sanguine; [24],15 min
same,Tension sanguine Durée,Tension sanguine; 100 mg par voie intraveineuse,60 min
same,Tension sanguine Mesure à,Tension sanguine; 100 mg par voie intraveineuse,1 min
same,Tension sanguine Pic,Tension sanguine; 100 mg par voie intraveineuse,10 min
same,REPONSE CO Durée,[16]; [24],105 min
same,REPONSE CO Mesure à,[16]; [24],1 min
same,REPONSE CO Pic,[16]; [24],10 min
same,REPONSE CO Durée,[16]; 100 mg par voie intraveineuse,45 min
same,REPONSE CO Mesure à,[16]; 100 mg par voie intraveineuse,5 min
same,REPONSE CO Pic,[16]; 100 mg par voie intraveineuse,15 min
"désoxyfructo-sérotonine [DF-5HT, reference compound]",incorporation de 3H-DOPA par M. Leprae,"M. Leprae; 1 µg/ml, Armadillo M.Leprae N°2275/5, témoins 5977",2431 DPM
same,incorporation de 3H-DOPA par M. Leprae,"M. Leprae; 1 µg/ml, Armadillo M.Leprae N°2275/5 Tués par la chaleur, témoins 915",410 DPM
same,incorporation de 3H-DOPA par M. Leprae,"M. Leprae; 1 µg/ml, Armadillo M.Leprae N°2457/103, témoins 4215",2575 DPM
same,incorporation de 3H-DOPA par M. Leprae,"M. Leprae; 1 µg/ml, Armadillo M.Leprae N°2457/103 Tués par la chaleur, témoins 2855",2110 DPM
same,incorporation de 3H-DOPA par M. Leprae,"M. Leprae; 5 µg/ml, Armadillo M.Leprae N°2275/5, témoins 5977",2264 DPM
same,incorporation de 3H-DOPA par M. Leprae,"M. Leprae; 5 µg/ml, Armadillo M.Leprae N°2275/5 Tués par la chaleur, témoins 915",566 DPM
same,incorporation de 3H-DOPA par M. Leprae,"M. Leprae; 5 µg/ml, Armadillo M.Leprae N°2457/103, témoins 4215",1485 DPM
same,incorporation de 3H-DOPA par M. Leprae,"M. Leprae; 5 µg/ml, Armadillo M.Leprae N°2457/103 Tués par la chaleur, témoins 2855",1640 DPM
same,niveau du compose non transformé dans le plasma,[17],insignifiante
same,% Inhibition à 0°C de l'incorporation de la sérotonine dans les cellules nerveuses,[18]; 0°C,95%
same,% Inhibition à 25°C de l'incorporation de la sérotonine dans les cellules nerveuses,"[18]; 10-^4 Mol, 25°C",90%
désoxyribulo-5-hydroxytryptophane [Désoxy ribulo-5HTP],Activité anticonvulsivante 2.Pentylènetetrazol,souris [1],0%
same,Essai de grimpé sur un baton vertical,souris [4],Sans effet
same,DL50 (ip)en toxicité aigue,souris [19],> 800 mg/kg
same,Essai à la morphine,souris [6],Négatif (pas d'antagonisme)
same,Activité motrice (Photactametre),souris [20],Augmentation pendant les 40 premières min. et ensuite diminution
same,Temps de sommeil au pentobarbital % du témoin (Témoin à 100),souris [7]; [23],"309,2 % du témoin"
same,Activité motrice spontanée,souris [10]; [23],sans effet
same,Quantités de 5-HT (dans tout le cerveau),[21],"92,5"
same,Activité anticonvulsivante 1. MES,souris [12],20%
same,Cadence respiratoire,souris [15],sans effet

# — patent EP0151577B1 (priority 1983, dated 1984)
